From patent US20230339945A1, “METHOD FOR PREPARING A CHELATING LIGAND DERIVED FROM PCTA” (GUERBET, priority 2020, published 2023)

How the values were obtained:
[1] = decomplexation kinetics (kinetic inertia) in acidic aqueous solution, pH 1.2, 37° C.; assay type: physicochemical; conditions: same conditions (pH 1.2, 37° C.); linear gadolinium complexes
Description: What is more, iso4 is the group of isomers which has the best kinetic inertia (also known as the kinetic stability) among the four groups isolated by the inventors. Specifically, the inventors evaluated the kinetic inertia of the four groups of isomers by studying their decomplexation kinetics in acidic aqueous solution (pH=1.2), at 37° C. The half-life time values (T1/2) which were determined for each of the groups of isomers are indicated in table 1 below, the half-life time corresponding to the time after which 50% of the amount of complex initially present has been dissociated, according to the following decomplexation reaction (equation 2): […]

[2] = formulation tests (concentrations of trometamol and of free ligand); assay type: physicochemical
Description: Various concentrations of trometamol from 0 to 100 mM were tested.
Various concentrations of macrocyclic ligand of formula (L) from 0 to 2.5 mM were tested.

[3] = formation of the gadolinium complex; as described in WO 2014/174120, DOTA-Gd for comparison; cited from earlier work

Compound: O=C([O-])CN(CCN(CC(=O)[O-])CC(=O)[O-])CCN(CC(=O)[O-])CC(=O)[O-].[Gd+3] [gadopentetate]
- kinetic inertia, dissociation in words [1]: dissociate instantaneously

Compound: O=C(CCC(C(=O)O)N1CCN(C(CCC(=O)NCC(O)CO)C(=O)O)Cc2cccc(n2)CN(C(CCC(=O)NCC(O)CO)C(=O)O)CC1)NCC(O)CO (centres unmarked) [macrocyclic ligand of formula (L)]
- release of free Gd during the process and during the lifetime of the product ([2]; content of 1 mM (0.08% m/v or 0.2 mol/mol %), 0 to 2.5 mM tested): absence of release of free Gd

Compound: O=C([O-])CN1CCN(CC(=O)[O-])CCN(CC(=O)O)CCN(CC(=O)[O-])CC1.[Gd+3] [DOTA-Gd, gadolinium complex of 1,4,7,10-tetraazacyclododecane-N,N′,N″,N′″-tetraacetic acid]
- log (Ktherm), stability constant [3]: 25.6

Compound: NC(CO)(CO)CO [trometamol, Tris(hydroxymethyl)aminomethane]
- pH stability of the formulation ([2]; content of 10 mM (0.12% w/v), 0 to 100 mM tested): sufficient to ensure the pH stability of the formulation

Compound: CNC(=O)CN(CCN(CCN(CC(=O)[O-])CC(=O)NC)CC(=O)[O-])CC(=O)[O-].[Gd+3] [gadodiamide]
- kinetic inertia, dissociation in words [1]: dissociate instantaneously
